Experimental data: PubChem BioAssay AID2060504 (Molecular Pharmacology Branch, DTP, NCI, 2025)
pIC50: −log10 of the molar value.

Tested on: 636577-100-R-J1-PDC complex spheroid viability
Experiment: Anticancer human tumor 636577-100-R-J1-PDC patient-derived endometrial adenocarcinoma cell line growth inhibition [GQUAD]
Details: for pIC50: curve of first compound; for viability, T/C: stronger effect = lower value
Summary of the method: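 Tumor cells were grown as complex spheroids with HUVEC endothelial cells and mesenchymal stem cells as stroma. G-quadruplex stabilizers were combined with targeted agents over half-log dilutions from near the clinical Cmax, or from 10 microM.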

[1] = second compound 0.0316 µM, first compound 0.0316 µM
[2] = second compound 0.0316 µM, first compound 0.1 µM
[3] = second compound 0.0316 µM, first compound 0.316 µM
[4] = second compound 0.0316 µM, first compound 1 µM
[5] = second compound 0.0316 µM, first compound 3.16 µM
[6] = second compound 0.0316 µM, first compound 10 µM
[7] = second compound 0.1 µM, first compound 0.0316 µM
[8] = second compound 0.1 µM, first compound 0.1 µM
[9] = second compound 0.1 µM, first compound 0.316 µM
[10] = second compound 0.1 µM, first compound 1 µM
[11] = second compound 0.1 µM, first compound 3.16 µM
[12] = second compound 0.1 µM, first compound 10 µM
[13] = second compound 0.316 µM, first compound 0.0316 µM
[14] = second compound 0.316 µM, first compound 0.1 µM
[15] = second compound 0.316 µM, first compound 0.316 µM
[16] = second compound 0.316 µM, first compound 1 µM
[17] = second compound 0.316 µM, first compound 3.16 µM
[18] = second compound 0.316 µM, first compound 10 µM
[19] = second compound 1 µM, first compound 0.0316 µM
[20] = second compound 1 µM, first compound 0.1 µM
[21] = second compound 1 µM, first compound 0.316 µM
[22] = second compound 1 µM, first compound 1 µM
[23] = second compound 1 µM, first compound 3.16 µM
[24] = second compound 1 µM, first compound 10 µM
[25] = second compound 3.16 µM, first compound 0.0316 µM
[26] = second compound 3.16 µM, first compound 0.1 µM
[27] = second compound 3.16 µM, first compound 0.316 µM
[28] = second compound 3.16 µM, first compound 1 µM
[29] = second compound 3.16 µM, first compound 3.16 µM
[30] = second compound 3.16 µM, first compound 10 µM
[31] = second compound 10 µM, first compound 0.0316 µM
[32] = second compound 10 µM, first compound 0.1 µM
[33] = second compound 10 µM, first compound 0.316 µM
[34] = second compound 10 µM, first compound 1 µM
[35] = second compound 10 µM, first compound 3.16 µM
[36] = second compound 10 µM, first compound 10 µM
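Note: viability read after seven days of drug exposure.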
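Throughout, for viability, T/C: luminescence signal used as a proxy for viable cells; 100% = DMSO vehicle control wells.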

## C#Cc1c(F)ccc2cc(O)cc(-c3ncc4c(N5CC6CCC(C5)N6)nc(OCC56CCCN5CC(F)C6)nc4c3F)c12 (stereo not drawn) + Cc1cnc(CNC(=O)c2c(=O)c3ccc(N4CCCN(C)CC4)nc3n3c2sc2ccccc23)cn1
Second compound 0.0316 µM
  pIC50: > 7.50
Second compound 0.1 µM
  pIC50: > 7.50
Second compound 0.316 µM
  pIC50: > 7.50
Second compound 1 µM
  pIC50: > 7.50
Second compound 3.16 µM
  pIC50: > 7.50
Second compound 10 µM
  pIC50: > 7.50
[1]
  viability, T/C: 48.3%
[2]
  viability, T/C: 45.1%
[3]
  viability, T/C: 46%
[4]
  viability, T/C: 30.9%
[5]
  viability, T/C: 38%
[6]
  viability, T/C: 28.6%
[7]
  viability, T/C: 31.6%
[8]
  viability, T/C: 26.9%
[9]
  viability, T/C: 25.8%
[10]
  viability, T/C: 21.6%
[11]
  viability, T/C: 22.5%
[12]
  viability, T/C: 20%
[13]
  viability, T/C: 22.2%
[14]
  viability, T/C: 22.6%
[15]
  viability, T/C: 25%
[16]
  viability, T/C: 18.9%
[17]
  viability, T/C: 19.8%
[18]
  viability, T/C: 16%
[19]
  viability, T/C: 18.4%
[20]
  viability, T/C: 19%
[21]
  viability, T/C: 21%
[22]
  viability, T/C: 18.1%
[23]
  viability, T/C: 15.7%
[24]
  viability, T/C: 13.3%
[25]
  viability, T/C: 17.1%
[26]
  viability, T/C: 20.5%
[27]
  viability, T/C: 19.5%
[28]
  viability, T/C: 17.4%
[29]
  viability, T/C: 17%
[30]
  viability, T/C: 16.5%
[31]
  viability, T/C: 19.3%
[32]
  viability, T/C: 16.1%
[33]
  viability, T/C: 20.3%
[34]
  viability, T/C: 17.5%
[35]
  viability, T/C: 19.7%
[36]
  viability, T/C: 16.2%

## C=CCn1c(=O)c2cnc(Nc3ccc(N4CCN(C)CC4)cc3)nc2n1-c1cccc(C(C)(C)O)n1 + Cc1cnc(CNC(=O)c2c(=O)c3ccc(N4CCCN(C)CC4)nc3n3c2sc2ccccc23)cn1
Second compound 0.0316 µM
  pIC50: > 7.50
Second compound 0.1 µM
  pIC50: > 7.50
Second compound 0.316 µM
  pIC50: > 7.50
Second compound 1 µM
  pIC50: > 7.50
Second compound 3.16 µM
  pIC50: > 7.50
Second compound 10 µM
  pIC50: > 7.50
[1]
  viability, T/C: 49.8%
[2]
  viability, T/C: 40.3%
[3]
  viability, T/C: 47.3%
[4]
  viability, T/C: 28.2%
[5]
  viability, T/C: 22.4%
[6]
  viability, T/C: 12.1%
[7]
  viability, T/C: 29.4%
[8]
  viability, T/C: 29%
[9]
  viability, T/C: 28.7%
[10]
  viability, T/C: 22.3%
[11]
  viability, T/C: 21.3%
[12]
  viability, T/C: 14.2%
[13]
  viability, T/C: 27.4%
[14]
  viability, T/C: 26.2%
[15]
  viability, T/C: 28.2%
[16]
  viability, T/C: 24.2%
[17]
  viability, T/C: 24.8%
[18]
  viability, T/C: 15.1%
[19]
  viability, T/C: 19.4%
[20]
  viability, T/C: 19.5%
[21]
  viability, T/C: 22.5%
[22]
  viability, T/C: 24.5%
[23]
  viability, T/C: 23.4%
[24]
  viability, T/C: 14.3%
[25]
  viability, T/C: 18.1%
[26]
  viability, T/C: 22.3%
[27]
  viability, T/C: 25.9%
[28]
  viability, T/C: 23.7%
[29]
  viability, T/C: 21.1%
[30]
  viability, T/C: 18.4%
[31]
  viability, T/C: 23%
[32]
  viability, T/C: 22.2%
[33]
  viability, T/C: 24.2%
[34]
  viability, T/C: 19.1%
[35]
  viability, T/C: 25.2%
[36]
  viability, T/C: 23.1%

## CCCS(=O)(=O)Nc1ccc(F)c(C(=O)c2c[nH]c3ncc(-c4ccc(Cl)cc4)cc23)c1F + Cc1cnc(CNC(=O)c2c(=O)c3ccc(N4CCCN(C)CC4)nc3n3c2sc2ccccc23)cn1
Second compound 0.0316 µM
  pIC50: > 7.50
Second compound 0.1 µM
  pIC50: > 7.50
Second compound 0.316 µM
  pIC50: > 7.50
Second compound 1 µM
  pIC50: > 7.50
Second compound 3.16 µM
  pIC50: > 7.50
Second compound 10 µM
  pIC50: > 7.50
[1]
  viability, T/C: 41.1%
[2]
  viability, T/C: 40.1%
[3]
  viability, T/C: 61.3%
[4]
  viability, T/C: 33.9%
[5]
  viability, T/C: 44.3%
[6]
  viability, T/C: 24.2%
[7]
  viability, T/C: 32%
[8]
  viability, T/C: 31%
[9]
  viability, T/C: 33.2%
[10]
  viability, T/C: 31%
[11]
  viability, T/C: 29.8%
[12]
  viability, T/C: 21.4%
[13]
  viability, T/C: 24.1%
[14]
  viability, T/C: 25.8%
[15]
  viability, T/C: 29.9%
[16]
  viability, T/C: 27.4%
[17]
  viability, T/C: 26.9%
[18]
  viability, T/C: 15.7%
[19]
  viability, T/C: 17.6%
[20]
  viability, T/C: 24.2%
[21]
  viability, T/C: 27.4%
[22]
  viability, T/C: 26.8%
[23]
  viability, T/C: 24.9%
[24]
  viability, T/C: 14.7%
[25]
  viability, T/C: 17.5%
[26]
  viability, T/C: 21.9%
[27]
  viability, T/C: 22%
[28]
  viability, T/C: 25.1%
[29]
  viability, T/C: 22.7%
[30]
  viability, T/C: 15.4%
[31]
  viability, T/C: 20.2%
[32]
  viability, T/C: 22.1%
[33]
  viability, T/C: 18.5%
[34]
  viability, T/C: 21.1%
[35]
  viability, T/C: 21.7%
[36]
  viability, T/C: 6.34%

## O=C(NO)c1cnc(N2CCN(S(=O)(=O)c3ccc4ccccc4c3)CC2)nc1 + Cc1cnc(CNC(=O)c2c(=O)c3ccc(N4CCCN(C)CC4)nc3n3c2sc2ccccc23)cn1
Second compound 0.0316 µM
  pIC50: > 7.50
Second compound 0.1 µM
  pIC50: > 7.50
Second compound 0.316 µM
  pIC50: > 7.50
Second compound 1 µM
  pIC50: > 7.50
Second compound 3.16 µM
  pIC50: > 7.50
Second compound 10 µM
  pIC50: > 7.50
[1]
  viability, T/C: 29.4%
[2]
  viability, T/C: 20.2%
[3]
  viability, T/C: 6.22%
[4]
  viability, T/C: 5.24%
[5]
  viability, T/C: 0.21%
[6]
  viability, T/C: 0.09%
[7]
  viability, T/C: 24.2%
[8]
  viability, T/C: 17.7%
[9]
  viability, T/C: 6.24%
[10]
  viability, T/C: 5.27%
[11]
  viability, T/C: 0.47%
[12]
  viability, T/C: 0.08%
[13]
  viability, T/C: 20%
[14]
  viability, T/C: 15.8%
[15]
  viability, T/C: 6.06%
[16]
  viability, T/C: 4.96%
[17]
  viability, T/C: 0.17%
[18]
  viability, T/C: 0.07%
[19]
  viability, T/C: 21.5%
[20]
  viability, T/C: 16.8%
[21]
  viability, T/C: 6.11%
[22]
  viability, T/C: 6.97%
[23]
  viability, T/C: 0.05%
[24]
  viability, T/C: 0.07%
[25]
  viability, T/C: 16.3%
[26]
  viability, T/C: 17.7%
[27]
  viability, T/C: 9.78%
[28]
  viability, T/C: 3.81%
[29]
  viability, T/C: 0.06%
[30]
  viability, T/C: 0.08%
[31]
  viability, T/C: 21.6%
[32]
  viability, T/C: 16.5%
[33]
  viability, T/C: 10.8%
[34]
  viability, T/C: 0.08%
[35]
  viability, T/C: 0.09%
[36]
  viability, T/C: 0.11%
